Assay results: ChEMBL document CHEMBL5113512, “β-Nitrostyrene derivatives as broad range potential antifungal agents targeting fungal cell wall” (2022)
In brackets after ≈: the same amount, converted by molar mass. Activity calls are given as the source filed them. The calls are words filed in the database; no cut-off is given here.

What was measured:
Candida [1] = assay: Downregulation of CDC15 gene expression in Candida cells; type: functional, cell-based
Candida [2] = assay: Downregulation of RLM1 gene expression in Candida cells; type: functional, cell-based
Candida albicans [3] = assay: Inhibition of drug efflux in Candida albicans ATCC 24433 overexpressing AD(1-8)u- assessed as […] in nile red efflux incubated for 30 mins by flow cytometry; type: functional
Candida [4] = assay: Downregulation of CPH1 gene expression in Candida cells; type: functional, cell-based
Candida [5] = assay: Downregulation of CAS5 gene expression in Candida cells; type: functional, cell-based
Nakaseomyces glabratus = assay: Antifungal activity against Candida glabrata ATCC 2001 assessed as inhibition of fungal growth by broth microdilution method; type: functional
Candida tropicalis = assay: Antifungal activity against Candida tropicalis ATCC 750 assessed as inhibition of fungal growth by broth microdilution method; type: functional
Candida albicans [6] = assay: Fungicidal activity against Candida albicans ATCC 24433 assessed as reduction in fungal growth by measuring reduction in colony count at sub-MIC concentration measured after 48 hrs by time kill assay; type: functional, organism-based
Cell membrane = assay: Disruption of membrane integrity in Candida albicans ATCC 24433 assessed as cell shrinkage and lysis by measuring leakage of intracellular material measured after 6 hrs by SEM analysis; type: subcellular
Candida albicans [7] = assay: Downregulation of ATO5 gene expression in Candida albicans ATCC 24433 by qRT-PCR analysis; type: functional
[Candida] auris [8] = Induction of ROS generation in Candida auris CBS10913 at sub-inhibitory concentration incubated for 1 hr by DCFDA staining-based flow cytometric analysis; type: functional, organism-based; conditions: Candidozyma auris
Candida albicans [9] = assay: Antifungal activity against wild type Candida albicans SN152 assessed as inhibition of fungal growth by broth microdilution method; type: functional
Candida albicans [10] = assay: Synergistic antifungal activity against wild type Candida albicans SN152 assessed as fractional inhibitory concentration index incubated for 48 hrs in presence of fluconazole by checker board assay; type: functional
Candida albicans [11] = assay: Synergistic antifungal activity against Candida albicans SN152 harboring CAS5 mutant assessed as inhibition of fungal growth incubated for 48 hrs in presence of fluconazole by checker board assay; type: functional
Candida albicans [12] = assay: Synergistic antifungal activity against wild type Candida albicans SN152 assessed as inhibition of fungal growth incubated for 48 hrs in presence of Amphotericin B by checker board assay; type: functional
Candida albicans [13] = assay: Synergistic antifungal activity against wild type Candida albicans SN152 assessed as fractional inhibitory concentration index incubated for 48 hrs in presence of Amphotericin B by checker board assay; type: functional
Candida albicans [14] = assay: Synergistic antifungal activity against Candida albicans SN152 harboring CAS5 mutant assessed as Amphotericin B MIC incubated for 48 hrs by checker board assay; type: functional
Candida albicans [15] = assay: Synergistic antifungal activity against Candida albicans ATCC 24433 assessed as Congo red MIC incubated for 48 hrs by checker board assay; type: functional
Candida parapsilosis [16] = assay: Synergistic antifungal activity against Candida parapsilosis ATCC 90018 assessed as Congo red MIC incubated for 48 hrs by checker board assay; type: functional; conditions: Lodderomyces parapsilosis
Candida parapsilosis [17] = assay: Synergistic antifungal activity against Candida parapsilosis ATCC 90018 assessed as inhibition of fungal growth incubated for 48 hrs in presence of Congo red by checker board assay; type: functional; conditions: Lodderomyces parapsilosis
[Candida] auris [18] = Synergistic antifungal activity against Candida auris CBS10913 assessed as Congo red MIC incubated for 48 hrs by checker board assay; type: functional; conditions: Candidozyma auris
[Candida] auris [19] = Synergistic antifungal activity against Candida auris CBS10913 assessed as fractional inhibitory concentration index incubated for 48 hrs in presence of Congo red by checker board assay; type: functional, Candidozyma auris
Candida albicans [20] = assay: Synergistic antifungal activity against Candida albicans ATCC 24433 assessed as fractional inhibitory concentration index incubated for 48 hrs in presence of Calcoflour White by checker board assay; type: functional
Candida parapsilosis [21] = assay: Synergistic antifungal activity against Candida parapsilosis ATCC 90018 assessed as inhibition of fungal growth incubated for 48 hrs in presence of Calcoflour White by checker board assay; type: functional; conditions: Lodderomyces parapsilosis
[Candida] auris [22] = Synergistic antifungal activity against Candida auris CBS10913 assessed as Calcoflour White MIC incubated for 48 hrs by checker board assay; type: functional; conditions: Candidozyma auris
[Candida] auris [23] = Synergistic antifungal activity against Candida auris CBS10913 assessed as inhibition of fungal growth incubated for 48 hrs in presence of Calcoflour White by checker board assay; type: functional; conditions: Candidozyma auris
Candida albicans [24] = assay: Synergistic antifungal activity against Candida albicans ATCC 24433 assessed as fractional inhibitory concentration index incubated for 48 hrs in presence of SDS by checker board assay; type: functional
Candida parapsilosis [25] = assay: Synergistic antifungal activity against Candida parapsilosis ATCC 90018 assessed as SDS MIC incubated for 48 hrs by checker board assay; type: functional; conditions: Lodderomyces parapsilosis
[Candida] auris [26] = Synergistic antifungal activity against Candida auris CBS10913 assessed as SDS MIC incubated for 48 hrs by checker board assay; type: functional; conditions: Candidozyma auris
[Candida] auris [27] = Synergistic antifungal activity against Candida auris CBS10913 assessed as inhibition of fungal growth incubated for 48 hrs in presence of SDS by checker board assay; type: functional; conditions: Candidozyma auris
Candida albicans [28] = assay: Antifungal activity against Candida albicans ATCC 24433 overexpressing transporter protein GU4 assessed as inhibition of fungal growth by broth microdilution method; type: functional
Candida albicans [29] = assay: Antifungal activity against Candida albicans ATCC 24433 overexpressing transporter protein GU5 assessed as inhibition of fungal growth by broth microdilution method; type: functional
Candida albicans [30] = assay: Antifungal activity against Candida albicans ATCC 24433 overexpressing transporter protein F2 assessed as inhibition of fungal growth by broth microdilution method; type: functional
Candida albicans [31] = assay: Antifungal activity against Candida albicans ATCC 24433 overexpressing ADPDR5-GFP assessed as inhibition of fungal growth by broth microdilution method; type: functional
Candida albicans [32] = assay: Synergistic antifungal activity against Candida albicans ATCC 24433 overexpressing ADCaMDR1-GFP assessed as fractional inhibitory concentration index incubated for 48 hrs in presence of caspofungin by checker board assay; type: functional
Candida albicans [33] = assay: Synergistic antifungal activity against Candida albicans ATCC 24433 overexpressing ADPDR5-G assessed as fractional inhibitory concentration index incubated for 48 hrs in presence of caspofungin by checker board assay; type: functional
Candida [34] = assay: Downregulation of SSZ1 gene expression in Candida cells; type: functional, cell-based
Candida albicans [35] = assay: Inhibition of drug efflux in Candida albicans ATCC 24433 overexpressing ADPDR5-GFP assessed as reduction in rhodamine 6g efflux preincubated for 45 mins followed by substrate addition and measured after 30 mins; type: functional; conditions: dose 0.1-100 µg/ml, time 75.0 min, DDE = dose-dependent effect
Candida [36] = assay: Downregulation of CCW14 gene expression in Candida cells; type: functional, cell-based
Candida [37] = assay: Downregulation of PGA48 gene expression in Candida cells; type: functional, cell-based
Candida [38] = assay: Downregulation of BMT5 gene expression in Candida cells; type: functional, cell-based
Candida [39] = assay: Downregulation of CCT6 gene expression in Candida cells; type: functional, cell-based
Candida [40] = assay: Downregulation of TCP1 gene expression in Candida cells; type: functional, cell-based
Candida [41] = assay: Downregulation of STT4 gene expression in Candida cells; type: functional, cell-based
Candida [42] = assay: Upregulation of ARG1 gene expression in Candida cells; type: functional, cell-based
Candida [43] = assay: Upregulation of ARG5 gene expression in Candida cells; type: functional, cell-based
Candida [44] = assay: Upregulation of ARG6 gene expression in Candida cells; type: functional, cell-based
Candida [45] = assay: Upregulation of VPH2 gene expression in Candida cells; type: functional, cell-based

## O=[N+]([O-])/C=C/c1ccc(O)cc1
Candida [1]
  Activity: Active
Candida [2]
  Activity: Active
Candida albicans [3]
  inhibition: Active
Candida [4]
  Activity: Active
Candida [5]
  Activity: Active
Nakaseomyces glabratus
  MIC80: 8 µg/mL (≈ 48.4 µM)
Candida tropicalis
  MIC80: 4 µg/mL (≈ 24.2 µM)
Candida albicans [6]
  Activity: Active
Cell membrane
  Activity: Active
Candida albicans [7]
  Activity: Active
[Candida] auris [8]
  Activity: Active
Candida albicans [9]
  MIC80: 8 µg/mL (≈ 48.4 µM)
Candida albicans [10]
  fractional inhibitory concentration index (FICI): 0.25
Candida albicans [11]
  MIC: 0.001 µg/mL
Candida albicans [12]
  MIC: 0.0625 µg/mL
Candida albicans [13]
  fractional inhibitory concentration index (FICI): 0.507
Candida albicans [14]
  MIC: 0.25 µg/mL
Candida albicans [15]
  MIC: 3.12 µg/mL
Candida parapsilosis [16]
  MIC: 6.25 µg/mL
Candida parapsilosis [17]
  MIC: 0.0312 µg/mL
[Candida] auris [18]
  MIC: 100 µg/mL
[Candida] auris [19]
  fractional inhibitory concentration index (FICI): 0.3125
Candida albicans [20]
  fractional inhibitory concentration index (FICI): 0.25
Candida parapsilosis [21]
  MIC: 0.0078 µg/mL
[Candida] auris [22]
  MIC: 25 µg/mL
[Candida] auris [23]
  MIC: 0.25 µg/mL
Candida albicans [24]
  fractional inhibitory concentration index (FICI): 0.5
Candida parapsilosis [25]
  MIC: 25 µg/mL
[Candida] auris [26]
  MIC: 60 µg/mL
[Candida] auris [27]
  MIC: 0.5 µg/mL
Candida albicans [28]
  MIC80: 4 µg/mL (≈ 24.2 µM)
Candida albicans [29]
  MIC80: 4 µg/mL (≈ 24.2 µM)
Candida albicans [30]
  MIC80: 2 µg/mL (≈ 12.1 µM)
Candida albicans [31]
  MIC80: 4 µg/mL (≈ 24.2 µM)
Candida albicans [32]
  fractional inhibitory concentration index (FICI): <0.5
Candida albicans [33]
  fractional inhibitory concentration index (FICI): <0.5
Candida [34]
  Activity: Active
Candida albicans [35]
  inhibition: Dde
Candida [36]
  Activity: Active
Candida [37]
  Activity: Active
Candida [38]
  Activity: Active
Candida [39]
  Activity: Active
Candida [40]
  Activity: Active
Candida [41]
  Activity: Active
Candida [42]
  Activity: Active
Candida [43]
  Activity: Active
Candida [44]
  Activity: Active
Candida [45]
  Activity: Active
